# Results from patent publication US20070049564A1 (Wyeth, priority 2005, published 2007).
# Like-named read-outs stand apart in the source and are kept apart here.
# Experiments:
# E. coli #311 = experiment: In vivo activity (oral, iv; ED50) against E. coli in mice; settings: for ED50: Escherichia coli
# Source text: . […] Smith and E. Coli #311 in mammals.
# Results of the tests (MIC, oral and IV) are list in Table 7.
# Staph. aureus Smith [1] = experiment: In vitro activity (MIC) against Staph. aureus Smith; assay type: cell-based; settings: for MIC: Staphylococcus aureus
# Staph. = experiment: Range of MIC for Staph. strains, including MRSA; settings: for MIC: Staphylococcus aureus
# Method: (§1) Antimicrobial susceptibility testing. The in vitro activities of the antibiotics are determined by the broth microdilution method as recommended by the National Committee for Clinical Laboratory Standards (NCCLS) (1). Mueller-Hinton II broth (MHBII)(BBL Cockeysville, Md.) is the medium employed in the testing procedures. Microtiter plates containing serial dilutions of each antimicrobial agent are inoculated with each organism to yield the appropriate density (10^5 CFU/ml) in a 100 μl final volume. The plates are incubated for 18-22 hours at 35° C. in ambient air.
# (§2) Representative compounds were first incubated in mouse serum for an hour prior to the in vitro testing against a panel of selected gram-positive and gram-negative bacteria strains. All compounds were also pre-incubated in water for an hour prior to testing as control. Representative compounds of Formula I were incubated in human serum prior to MIC determination.
# Staph. aureus Smith [2] = experiment: In vivo activity (oral, iv; ED50) against Staph. aureus Smith in mice
# Method: Representative examples of compounds of Formula I were tested for the oral efficacy using S. aureus Smith in mice.
# E. coli [3] = experiment: Range of MIC for E. coli strains; settings: for MIC: Escherichia coli
# E. coli [4] = experiment: In vitro activity (MIC) against E. coli (Table 7); assay type: cell-based
# Enterococcus spp. = experiment: In vitro activity (MIC), strain groups; settings: Enterococcus spp.
# Method: as §1
# (§3) Presented in Tables I-XIII are representative compounds of Formula I which were evaluated against a panel of 40 selected gram-positive and gram-negative bacteria strains by pre-incubation in water, mouse serum or human serum. Representative compounds were first incubated in mouse serum for an hour prior to the in vitro testing against a panel of selected gram-positive and gram-negative bacteria strains. All compounds were also pre-incubated in water for an hour prior to testing as control. Representative compounds of Formula I were incubated in human serum prior to MIC determination.
# [5] = test system: E. coli, tet(A-D), efflux; experiment: In vitro activity (MIC), strain groups; settings: E. coli, tet(A-D), efflux; Mouse serum
# Method: as §1, §2
# [6] = test system: E. coli, tet (M,S,O) Tet (M); experiment: In vitro activity (MIC), strain groups; settings: E. coli, tet (M,S,O) Tet (M)
# Method: as §1, §3
# Streptococcus spp. = experiment: In vitro activity (MIC), strain groups; settings: Streptococcus spp.
# Method: as §1, §3
# S. aureus, tet (M) = experiment: In vitro activity (MIC), strain groups
# Method: as §1, §2
# [7] = single intravenous dose (SIV), read-out: ED50 E. coli #311 SIV
# [8] = single oral dose (SOD), read-out: ED50 E. coli #311 SOD
# [9] = MRSA, read-out: Range of MIC, Staph (Mouse Serum)
# [10] = MRSA, read-out: Range of MIC, Staph (Water)
# [11] = MRSA, read-out: Range of MIC, Staph. (mouse serum)
# [12] = MRSA, read-out: Range of MIC, Staph. (water)
# [13] = read-out: Minimum inhibitory concentration (MIC), Staph (Human Serum)
# [14] = read-out: Minimum inhibitory concentration (MIC), Staph (Water)
# [15] = Staphylococcus aureus, in Mus musculus, iv, read-out: ED50 SIV (Staph aureus Smith)
# [16] = Staphylococcus aureus, in Mus musculus, po, read-out: ED50 SOD (Staph aureus Smith)
# [17] = Staphylococcus aureus, in Mus musculus, po, read-out: ED50 Staph Smith SOD
# [18] = iv, read-out: ED50 Staph Smith SIV
# [19] = 20 h, read-out: Range of MIC, E. coli (Mouse Serum)
# [20] = read-out: Minimum inhibitory concentration (MIC), E. coli (Human Serum)
# [21] = read-out: Range of MIC, E. coli (mouse serum)
# [22] = MRSA, read-out: Minimum inhibitory concentration (MIC), Staph. (mouse serum)
# [23] = MRSA, read-out: Minimum inhibitory concentration (MIC), Staph. (water)
# [24] = read-out: Minimum inhibitory concentration (MIC), E. coli (mouse serum)
# [25] = read-out: Minimum inhibitory concentration (MIC), E. coli (water)
# [26] = read-out: Range of MIC, E. coli (Water)
compound,measurement,setting,value
"CCCCCCC(=O)OCOC(=O)N(CCC)CC(=O)Nc1cc(N(C)C)c2c(c1O)C(=O)C1=C(O)[C@]3(O)C(=O)C(C(N)=O)=C(O)[C@@H](N(C)C)[C@@H]3C[C@@H]1C2 [Example 19, ({[(2-{[(5aR,6aS,7S,10aS)-9-(aminocarbonyl)-4,7-bis(dimethylamino)-1,8,10a,11-tetrahydroxy-10,12-dioxo-5,5a,6,6a,7,10,10a,12-octahydrotetracen-2-yl]amino}-2-oxoethyl)(propyl)amino]carbonyl}oxy)methyl heptanoate]",ED50,E. coli #311; [7],> 2 mg/kg
same,ED50,E. coli #311; [8],> 32 mg/kg
same,MIC,Staph. aureus Smith [1]; Table 8,1 µg/mL
same,MIC,Staph.; [9],0.5 to 4 µg/mL
same,MIC,Staph.; [10],1 to 8 µg/mL
same,MIC,Staph.; [11],0.5 to 4 µg/mL
same,MIC,Staph.; [12],1 to 8 µg/mL
same,MIC,Staph.; [13],0.12 to 1 µg/mL
same,MIC,Staph.; [14],0.25 to 4 µg/mL
same,ED50,Staph. aureus Smith [2]; [15],0.31 mg/kg
same,ED50,Staph. aureus Smith [2]; [16],8.05 mg/kg
same,ED50,Staph. aureus Smith [2]; [17],8.05 mg/kg
same,ED50,Staph. aureus Smith [2]; [18],0.31 mg/kg
same,MIC,E. coli [3]; [19],0.5 to 2 µg/mL
same,MIC,E. coli [3]; [20],8 to 32 µg/mL
same,MIC,E. coli [3]; [21],0.5 to 2 µg/mL
"CCCCN(CC(=O)Nc1cc(N(C)C)c2c(c1O)C(=O)C1=C(O)[C@]3(O)C(=O)C(C(N)=O)=C(O)[C@@H](N(C)C)[C@@H]3C[C@@H]1C2)C(=O)OCOC(=O)CC(C)(C)C [Example 36, ({[(2-{[(5aR,6aS,7S,10aS)-9-(aminocarbonyl)-4,7-bis(dimethylamino)-1,8,10a,11-tetrahydroxy-10,12-dioxo-5,5a,6,6a,7,10,10a,12-octahydrotetracen-2-yl]amino}-2-oxoethyl)(butyl)amino]carbonyl}oxy)methyl 3,3-dimethylbutanoate]",MIC,Staph. aureus Smith [1]; Table 8,8 µg/mL
same,MIC,Staph.; [22],2 to 4 µg/mL
same,MIC,Staph.; [23],4 to 16 µg/mL
same,MIC,Staph.; [9],2 to 4 µg/mL
same,MIC,Staph.; [10],4 to 16 µg/mL
same,ED50,Staph. aureus Smith [2]; [15],0.84 mg/kg
same,ED50,Staph. aureus Smith [2]; [16],5.15 mg/kg
same,ED50,Staph. aureus Smith [2]; [17],5.15 mg/kg
same,ED50,Staph. aureus Smith [2]; [18],0.84 mg/kg
same,MIC,E. coli [3]; [19],2 to 8 µg/mL
same,MIC,E. coli [3]; [24],2 to 8 µg/mL
same,MIC,E. coli [3]; [25],8 to 32 µg/mL
same,MIC,E. coli [3]; [26],8 to 32 µg/mL
"CCCCN(CC(=O)Nc1cc(N(C)C)c2c(c1O)C(=O)C1=C(O)[C@]3(O)C(=O)C(C(N)=O)=C(O)[C@@H](N(C)C)[C@@H]3C[C@@H]1C2)C(=O)OCOC(=O)CC1CCCC1 [Example 38, ({[(2-{[(5aR,6aS,7S,10aS)-9-(aminocarbonyl)-4,7-bis(dimethylamino)-1,8,10a,11-tetrahydroxy-10,12-dioxo-5,5a,6,6a,7,10,10a,12-octahydrotetracen-2-yl]amino}-2-oxoethyl)(butyl)amino]carbonyl}oxy)methyl cyclopentylacetate]",MIC,Staph. aureus Smith [1]; Table 8,2 µg/mL
same,MIC,Staph.; [22],0.5 to 2 µg/mL
same,MIC,Staph.; [23],1 to 8 µg/mL
same,MIC,Staph.; [9],0.5 to 2 µg/mL
same,MIC,Staph.; [10],1 to 8 µg/mL
same,ED50,Staph. aureus Smith [2]; [15],0.6 mg/kg
same,ED50,Staph. aureus Smith [2]; [16],5.3 mg/kg
same,ED50,Staph. aureus Smith [2]; [17],5.3 mg/kg
same,ED50,Staph. aureus Smith [2]; [18],0.6 mg/kg
same,MIC,E. coli [3]; [19],0.5 to 4 µg/mL
same,MIC,E. coli [3]; [24],0.5 to 4 µg/mL
"CCCN(CC(=O)Nc1cc(N(C)C)c2c(c1O)C(=O)C1=C(O)[C@]3(O)C(=O)C(C(N)=O)=C(O)[C@@H](N(C)C)[C@@H]3C[C@@H]1C2)C(=O)OCOC(=O)CC1CCCC1 [Example 40, ({[(2-{[(5aR,6aS,7S,10aS)-9-(aminocarbonyl)-4,7-bis(dimethylamino)-1,8,10a,11-tetrahydroxy-10,12-dioxo-5,5a,6,6a,7,10,10a,12-octahydrotetracen-2-yl]amino}-2-oxoethyl)(propyl)amino]carbonyl}oxy)methyl cyclopentylacetate]",MIC,Staph. aureus Smith [1]; Table 8,0.5 µg/mL
same,MIC,Staph.; [9],0.25 to 2 µg/mL
same,MIC,Staph.; [10],0.25 to 2 µg/mL
same,MIC,Staph.; [11],0.25 to 2 µg/mL
same,MIC,Staph.; [12],0.25 to 2 µg/mL
same,ED50,Staph. aureus Smith [2]; [15],0.39 mg/kg
same,ED50,Staph. aureus Smith [2]; [16],4.65 mg/kg
same,ED50,Staph. aureus Smith [2]; [17],4.65 mg/kg
same,ED50,Staph. aureus Smith [2]; [18],0.39 mg/kg
same,MIC,E. coli [3]; [19],1 to 2 µg/mL
same,MIC,E. coli [3]; [21],1 to 2 µg/mL
"CN(C)c1cc(NC(=O)CN(C(=O)OCOC(=O)CC2CCCC2)C(C)(C)C)c(O)c2c1C[C@H]1C[C@H]3[C@H](N(C)C)C(O)=C(C(N)=O)C(=O)[C@@]3(O)C(O)=C1C2=O [Example 54, ({[(2-{[(5aR,6aS,7S,10aS)-9-(aminocarbonyl)-4,7-bis(dimethylamino)-1,8,10a,11-tetrahydroxy-10,12-dioxo-5,5a,6,6a,7,10,10a,12-octahydrotetracen-2-yl]amino}-2-oxoethyl)(tert-butyl)amino]carbonyl}oxy)methyl cyclopentylacetate]",MIC,E. coli [4]; Escherichia coli,> 64 µg/mL
same,ED50,E. coli #311; [7],3.72 mg/kg
same,ED50,"E. coli #311; single intravenous dose, mice, Table 7, read-out: ED50 SIV (E. coli)",2.16 mg/kg
same,ED50,E. coli #311; [8],> 32 mg/kg
same,ED50,"E. coli #311; single oral dose, mice, Table 7, read-out: ED50 SOD (E. coli)",29.2 mg/kg
same,MIC,Staph. aureus Smith [1]; Table 6,0.5 µg/mL
same,MIC,Staph.; [9],0.5 to 2 µg/mL
same,MIC,Staph.; [10],1 to 4 µg/mL
same,MIC,Staph.; [13],0.5 to 2 µg/mL
same,MIC,Staph.; [14],1 to 4 µg/mL
same,ED50,Staph. aureus Smith [2]; [15],0.83 mg/kg
same,ED50,Staph. aureus Smith [2]; [16],8.4 mg/kg
same,ED50,Staph. aureus Smith [2]; [17],> 16 mg/kg
same,ED50,Staph. aureus Smith [2]; [18],1.17 mg/kg
same,MIC,E. coli [3]; [19],0.5 to 1 µg/mL
same,MIC,E. coli [3]; [20],16 to 32 µg/mL
same,MIC,E. coli [3]; [25],> 64 µg/mL
same,MIC,E. coli [3]; [26],> 64 µg/mL
"[({[(5aR,6aS,7S,10aS)-9-(aminocarbonyl)-4,7-bis(dimethylamino)-1,8,10a,11-tetrahydroxy-10,12-dioxo-5,5a,6,6a,7,10,10a,12-octahydrotetracen-2-yl]amino}carbonyl)oxy]methyl 4-tert-butylbenzoate [Example 87]",In vitro activity (MIC),Enterococcus spp.; Human serum,0.25-8
same,In vitro activity (MIC),Enterococcus spp.; Mouse serum,0.12-0.5
same,In vitro activity (MIC),Enterococcus spp.; water,0.25-32
same,MIC (E. coli),E. coli [4],>64 µg/mL
same,In vitro activity (MIC),[5],0.25-0.5
same,ED50 SIV (E. coli),"E. coli #311; single intravenous dose, mice, Table 7",3.6 mg/kg
same,ED50 SOD (E. coli),"E. coli #311; single oral dose, mice, Table 7",60.4 mg/kg
same,MIC (Staph aureus Smith),Staph. aureus Smith [1]; Table 6,32 µg/mL
same,"Range of MIC, Staph (Mouse Serum)","Staph.; Mouse Serum, including MRSA, Table 1",32 to 64 µg/mL
same,"Range of MIC, Staph (Water)","Staph.; Water, including MRSA, Table 1",>64 µg/mL
same,In vitro activity (MIC),[6]; Human serum,>64
same,In vitro activity (MIC),[6]; Mouse serum,0.25-0.5
same,In vitro activity (MIC),[6]; water,>64
same,In vitro activity (MIC),Streptococcus spp.; Human serum,1-2
same,In vitro activity (MIC),Streptococcus spp.; water,0.5-2
same,In vitro activity (MIC),"S. aureus, tet (M); Human serum",16
same,In vitro activity (MIC),"S. aureus, tet (M); Mouse serum",0.5
same,In vitro activity (MIC),"S. aureus, tet (M); water",64
same,ED50 SIV (Staph aureus Smith),"Staph. aureus Smith [2]; single intravenous dose, mice, Table 6",0.83 mg/kg
same,ED50 SOD (Staph aureus Smith),"Staph. aureus Smith [2]; single oral dose, mice, Table 6",12.82 mg/kg
same,"Range of MIC, E. coli (Water)","E. coli [3]; Water, Table 1",>64 µg/mL
